Test results from US8008488B2 (Abbott GmbH & Co. KG, priority 2003, dated 2011).
Counter-ions that a name gives are not always drawn.

Key:
[1] = molecular target: T1, human dopamine D3 receptors (Homo sapiens, UniProt P35462); test: Dopamine D3 receptor binding, displacement of [125I]-iodosulpride; settings: membranes from HEK-293 cells with stably expressed human D3 receptors, 0.1 nM [125I]-iodosulpride
T1 construct: expressed in transfected cells

[2] = molecular target: T2, human dopamine D2L receptors (long isoform) (Homo sapiens, UniProt P14416); test: Dopamine D2L receptor binding, displacement of [125I]-iodospiperone; settings: *Ki(D2L)/Ki(D3), HEK-293 membranes, 0.01 nM [125I]-iodospiperone
T2 construct: expressed in transfected cells
Summary of the method: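 Triplicate incubations ran 60 min at 25 °C in pH 7.4 Tris buffer with 120 mM NaCl, 5 mM KCl, 2 mM CaCl2, 2 mM MgCl2 and 0.1% BSA. Bound radioactivity was collected by GF/B filtration and counted as dpm. Inhibition curves were fitted by iterative nonlinear regression.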

T1 sequence (P35462 whole entry): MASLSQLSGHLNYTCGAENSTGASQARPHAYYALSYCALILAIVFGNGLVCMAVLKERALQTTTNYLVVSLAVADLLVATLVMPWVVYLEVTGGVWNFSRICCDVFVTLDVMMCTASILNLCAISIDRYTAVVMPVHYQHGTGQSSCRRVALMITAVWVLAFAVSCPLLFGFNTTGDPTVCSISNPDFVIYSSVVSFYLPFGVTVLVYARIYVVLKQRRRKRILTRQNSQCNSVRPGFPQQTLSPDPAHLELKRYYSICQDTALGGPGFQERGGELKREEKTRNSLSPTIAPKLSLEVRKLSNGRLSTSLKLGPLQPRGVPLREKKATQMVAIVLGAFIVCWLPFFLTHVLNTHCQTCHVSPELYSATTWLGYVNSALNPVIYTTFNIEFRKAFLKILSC
T2 sequence (P14416 whole entry, canonical isoform): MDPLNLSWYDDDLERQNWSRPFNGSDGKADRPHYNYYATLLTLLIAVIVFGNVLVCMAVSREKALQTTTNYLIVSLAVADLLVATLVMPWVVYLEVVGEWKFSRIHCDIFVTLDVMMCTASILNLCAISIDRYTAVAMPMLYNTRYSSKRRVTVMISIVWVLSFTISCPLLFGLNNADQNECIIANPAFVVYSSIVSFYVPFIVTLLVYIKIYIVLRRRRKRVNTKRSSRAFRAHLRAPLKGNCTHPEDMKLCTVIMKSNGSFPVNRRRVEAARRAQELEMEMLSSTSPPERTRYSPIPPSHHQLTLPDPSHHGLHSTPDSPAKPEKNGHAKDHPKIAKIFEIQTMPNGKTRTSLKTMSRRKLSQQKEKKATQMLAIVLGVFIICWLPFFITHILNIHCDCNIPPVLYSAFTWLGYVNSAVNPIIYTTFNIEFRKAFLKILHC

| Structure (SMILES) | Ki [1] | Selectivity D3 vs. D2L* [2] |
| --- | --- | --- |
| CC(=O)O.CCCc1cc(N2CCN(CCCCn3cc(Cl)c(=O)[nH]c3=O)CC2)nc(C(C)(C)C)n1 [Example 77, 4-(2-tert-Butyl-6-propylpyrimidin-4-yl)-1-[4-(5-chloro-2,4-dioxo-3,4-dihydro-2H-pyrimidin-1-yl)butyl]piperazin-1-ium acetate] | 0.74 nM | 150 |
| O=c1ccn(CCCCN2CCN(c3cccc(Cl)c3Cl)CC2)c(=O)[nH]1 [Example 78, 1-{4-[4-(2,3-Dichlorophenyl)piperazin-1-yl]butyl}-1H-pyrimidine-2,4-dione] | 0.32 nM | 48 |
| O=c1[nH]c(=O)n(CCCCN2CCN(c3cccc(Cl)c3Cl)CC2)cc1F [Example 79, 1-{4-[4-(2,3-Dichlorophenyl)piperazin-1-yl]butyl}-5-fluoro-1H-pyrimidine-2,4-dione] | 0.86 nM | 30 |
| O=c1nc(-c2ccccc2)ccn1CCCCN1CCN(c2cccc(Cl)c2Cl)CC1 [Example 81, 4-(2,3-Dichlorophenyl)-1-[4-(2-oxo-4-phenyl-2H-pyrimidin-1-yl)butyl]piperazin-1-ium fumarate] | 2.56 nM | 94 |
| CCc1cn(CCCCN2CCN(c3cc(C(F)(F)F)nc(C(C)(C)C)n3)CC2)c(=O)[nH]c1=O [Example 83, 4-(2-tert-Butyl-6-trifluoromethylpyrimidin-4-yl)-1-[4-(5-ethyl-2,4-dioxo-3,4-dihydro-2H-pyrimidin-1-yl)butyl]piperazine 1-fumarate] | 1.66 nM | 89 |
| CCCc1cc(N2CCN(CCCCn3cc(CC)c(=O)[nH]c3=O)CC2)nc(C(C)(C)C)n1 [Example 84, 4-(2-tert-Butyl-6-propylpyrimidin-4-yl)-1-[4-(5-ethyl-2,4-dioxo-3,4-dihydro-2H-pyrimidin-1-yl)butyl]piperazin-1-ium fumarate] | 0.75 nM | 63 |
| CCOc1ccn(CCCCN2CCN(c3cc(C(F)(F)F)nc(C(C)(C)C)n3)CC2)c(=O)n1 [Example 85, 4-(2-tert-Butyl-6-trifluoromethylpyrimidin-4-yl)-1-[4-(4-ethoxy-2-oxo-2H-pyrimidin-1-yl)butyl]piperazin-1-ium fumarate] | 7.36 nM | 35 |
| CCCc1cc(N2CCN(CCCCn3ccc(OCC)nc3=O)CC2)nc(C(C)(C)C)n1 [Example 86, 4-(2-tert-Butyl-6-propylpyrimidin-4-yl)-1-[4-(4-ethoxy-2-oxo-2H-pyrimidin-1-yl)butyl]piperazin-1-ium fumarate] | 2.44 nM | 43 |
| CCCc1cc(N2CCN(CCCCn3ccc(-c4cccs4)nc3=O)CC2)nc(C(C)(C)C)n1 [Example 87, 1-{4-[4-(2-tert-Butyl-6-propylpyrimidin-4-yl)piperazin-1-yl]butyl}-4-thiophen-2-yl-1H-pyrimidin-2-one] | 0.97 nM | 31 |
| CC(C)(C)c1nc(N2CCN(CCCCn3ccc(-c4ccsc4)nc3=O)CC2)cc(C(F)(F)F)n1 [Example 92, 4-(2-tert-Butyl-6-trifluoromethylpyrimidin-4-yl)-1-[4-(2-oxo-4-thiophen-3-yl-2H-pyrimidin-1-yl)butyl]piperazin-1-ium fumarate] | 4.56 nM | 31 |
| CCCc1cc(N2CCN(CCCCn3ccc(-c4ccsc4)nc3=O)CC2)nc(C(C)(C)C)n1 [Example 93, 1-{4-[4-(2-tert-Butyl-6-propylpyrimidin-4-yl)piperazin-1-yl]butyl}-4-thiophen-3-yl-1H-pyrimidin-2-one] | 0.65 nM | 40 |
| CC(=O)O.CC(C)(C)c1nc(N2CCN(CCCCn3ccc(C4CC4)nc3=O)CC2)cc(C(F)(F)F)n1 [Example 94, 4-(2-tert-Butyl-6-trifluoromethylpyrimidin-4-yl)-1-[4-(4-cyclopropyl-2-oxo-2H-pyrimidin-1-yl)butyl]piperazin-1-ium acetate] | 4.28 nM | 36 |
| CCc1ccn(CCCCN2CCN(c3cc(C(F)(F)F)nc(C(C)(C)C)n3)CC2)c(=O)n1 [Example 95, 4-(2-tert-Butyl-6-trifluoromethylpyrimidin-4-yl)-1-[4-(4-ethyl-2-oxo-2H-pyrimidin-1-yl)butyl]piperazin-1-ium fumarate] | 6.53 nM | 45 |
| CC(C)c1ccn(CCCCN2CCN(c3cc(C(F)(F)F)nc(C(C)(C)C)n3)CC2)c(=O)n1 [Example 97, 4-(2-tert-Butyl-6-trifluoromethylpyrimidin-4-yl)-1-[4-(4-isopropyl-2-oxo-2H-pyrimidin-1-yl)butyl]piperazin-1-ium fumarate] | 4.26 nM | 58 |
| CCCc1cc(N2CCN(CCCCn3ccc(C(C)C)nc3=O)CC2)nc(C(C)(C)C)n1 [Example 98, 4-(2-tert-Butyl-6-propylpyrimidin-4-yl)-1-[4-(4-isopropyl-2-oxo-2H-pyrimidin-1-yl)butyl]piperazine 1-fumarate] | 1.62 nM | 59 |
| CCCc1cc(N2CCN(CCCCn3ccc(C4CCCCC4)nc3=O)CC2)nc(C(C)(C)C)n1 [Example 100, 4-(2-tert-Butyl-6-propylpyrimidin-4-yl)-1-[4-(4-cyclohexyl-2-oxo-2H-pyrimidin-1-yl)butyl]piperazin-1-ium fumarate] | 1.38 nM | 51 |
| Cc1ccccc1N1CCN(CCCCn2cc(C)c(=O)[nH]c2=O)CC1 [Example 111, 5-Methyl-1-[4-(4-(o-tolyl)piperazin-1-yl)butyl]-1H-pyrimidine-2,4-dione] | 6.8 nM | 30 |
| Cc1cn(CCCCN2CCN(c3cc(Cl)cc(Cl)c3)CC2)c(=O)[nH]c1=O [Example 119, 1-{4-[4-(3,5-Dichlorophenyl)piperazin-1-yl]butyl}-5-methyl-1H-pyrimidine-2,4-dione] | 0.46 nM | 65 |
| Cc1cn(CCCCN2CCN(c3cc(C(F)(F)F)cc(C(F)(F)F)c3)CC2)c(=O)[nH]c1=O [Example 125, 1-{4-[4-(3,5-Bis-trifluoromethylphenyl)piperazin-1-yl]butyl}-5-methyl-1H-pyrimidine-2,4-dione] | 6.8 nM | 63 |
| Cc1cn(CCCCN2CCN(c3ccccc3Cl)CC2)c(=O)[nH]c1=O [Example 127, 1-{4-[4-(2-Chlorophenyl)piperazin-1-yl]butyl}-5-methyl-1H-pyrimidine-2,4-dione] | 1.5 nM | 45 |
| Cc1cccc(N2CCN(CCCCn3cc(C)c(=O)[nH]c3=O)CC2)c1C [Example 128, 1-{4-[4-(2,3-Dimethylphenyl)piperazin-1-yl]butyl}-5-methyl-1H-pyrimidine-2,4-dione] | 2.4 nM | 55 |
| Cc1cn(CCCCN2CCN(c3cccc(C(F)(F)F)c3)CC2)c(=O)[nH]c1=O [Example 129, 5-Methyl-1-{4-[4-(3-trifluoromethylphenyl)piperazin-1-yl]butyl}-1H-pyrimidine-2,4-dione] | 1.3 nM | 48 |
| Cc1cn(CCCCN2CCN(c3ccc(F)cc3F)CC2)c(=O)[nH]c1=O [Example 131, 1-{4-[4-(2,4-Difluorophenyl)piperazin-1-yl]butyl}-5-methyl-1H-pyrimidine-2,4-dione] | 25.7 nM | 30 |
| Cc1cc(C)cc(N2CCN(CCCCn3cc(C)c(=O)[nH]c3=O)CC2)c1 [Example 132, 1-{4-[4-(3,5-Dimethylphenyl)piperazin-1-yl]butyl}-5-methyl-1H-pyrimidine-2,4-dione] | 5.5 nM | 34 |
| COc1cc(OC)cc(N2CCN(CCCCn3cc(C)c(=O)[nH]c3=O)CC2)c1 [Example 134, 1-{4-[4-(3,5-Dimethoxyphenyl)piperazin-1-yl]butyl}-5-methyl-1H-pyrimidine-2,4-dione] | 13.1 nM | 55 |
| Cc1cn(CCCCN2CCN(c3cccc(Cl)c3Cl)CC2)c(=O)[nH]c1=O [Example 135, 1-{4-[4-(2,3-Dichlorophenyl)piperazin-1-yl]butyl}-5-methyl-1H-pyrimidine-2,4-dione] | 0.27 nM | 87 |
